{
  "source": "patent US11046699B2",
  "about": "“Pyrazolo-pyrimidin-amino-cycloalkyl compounds and their therapeutic uses” (RAPT THERAPEUTICS, INC., priority 2018, dated 2021)",
  "biological_target": "GCN2 (Homo sapiens, UniProt Q9P2K8)",
  "sequence (Q9P2K8 whole entry)": "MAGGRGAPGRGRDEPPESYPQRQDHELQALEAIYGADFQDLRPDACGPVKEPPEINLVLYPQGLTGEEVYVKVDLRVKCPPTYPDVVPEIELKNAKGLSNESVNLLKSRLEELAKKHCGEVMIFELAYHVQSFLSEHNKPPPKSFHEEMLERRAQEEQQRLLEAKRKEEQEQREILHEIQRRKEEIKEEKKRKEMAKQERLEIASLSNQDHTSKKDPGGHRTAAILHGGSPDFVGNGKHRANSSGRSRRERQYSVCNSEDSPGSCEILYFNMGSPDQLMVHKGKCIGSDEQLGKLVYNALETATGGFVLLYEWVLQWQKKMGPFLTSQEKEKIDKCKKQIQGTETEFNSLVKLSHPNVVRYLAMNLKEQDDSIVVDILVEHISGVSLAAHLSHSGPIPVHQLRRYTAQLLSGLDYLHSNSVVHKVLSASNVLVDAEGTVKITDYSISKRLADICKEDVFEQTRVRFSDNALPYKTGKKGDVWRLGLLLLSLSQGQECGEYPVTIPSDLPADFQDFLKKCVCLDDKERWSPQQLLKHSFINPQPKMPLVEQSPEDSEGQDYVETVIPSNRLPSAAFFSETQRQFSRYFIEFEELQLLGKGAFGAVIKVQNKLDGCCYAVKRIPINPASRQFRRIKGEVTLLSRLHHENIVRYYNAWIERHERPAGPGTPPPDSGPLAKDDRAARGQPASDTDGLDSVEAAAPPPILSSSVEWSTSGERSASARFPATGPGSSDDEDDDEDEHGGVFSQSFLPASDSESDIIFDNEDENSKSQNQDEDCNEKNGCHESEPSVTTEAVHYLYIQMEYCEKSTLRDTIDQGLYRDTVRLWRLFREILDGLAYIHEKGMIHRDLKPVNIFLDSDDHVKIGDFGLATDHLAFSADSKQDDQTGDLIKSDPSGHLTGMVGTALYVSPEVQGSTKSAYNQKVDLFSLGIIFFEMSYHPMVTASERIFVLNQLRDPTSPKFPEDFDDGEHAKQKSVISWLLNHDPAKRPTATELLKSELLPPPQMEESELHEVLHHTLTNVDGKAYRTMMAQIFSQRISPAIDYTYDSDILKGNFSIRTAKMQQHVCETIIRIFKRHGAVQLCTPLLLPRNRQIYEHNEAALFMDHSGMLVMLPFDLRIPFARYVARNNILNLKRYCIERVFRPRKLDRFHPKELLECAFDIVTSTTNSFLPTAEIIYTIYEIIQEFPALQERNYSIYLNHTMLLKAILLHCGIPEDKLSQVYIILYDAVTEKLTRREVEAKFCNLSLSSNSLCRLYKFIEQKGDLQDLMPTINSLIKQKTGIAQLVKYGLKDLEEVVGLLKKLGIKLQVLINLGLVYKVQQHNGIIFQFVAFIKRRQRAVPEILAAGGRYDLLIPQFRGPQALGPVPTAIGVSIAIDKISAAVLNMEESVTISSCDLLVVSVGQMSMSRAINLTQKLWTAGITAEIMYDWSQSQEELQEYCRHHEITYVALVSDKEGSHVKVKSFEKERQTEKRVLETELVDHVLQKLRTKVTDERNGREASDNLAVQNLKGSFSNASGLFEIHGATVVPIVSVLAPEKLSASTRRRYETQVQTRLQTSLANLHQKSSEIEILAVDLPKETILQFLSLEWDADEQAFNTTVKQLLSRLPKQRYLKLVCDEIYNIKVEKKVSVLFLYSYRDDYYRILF",
  "assay": "GCN2 enzymatic endpoint assay: phosphorylation of GFP-eIF2α measured by TR-FRET (Lanthascreen)",
  "assay_type": "biochemical",
  "method_in_brief": "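Phosphorylated eIF2α read by Lanthascreen TR-FRET (acceptor 520 nm over donor 495 nm) after EDTA stop. The reaction ran 90 min at room temperature on 80 nM GFP-eIF2α with 2 μM ATP.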",
  "key": {"[1]": {"conditions": "tested as described in Example 77, compound and/or hydrochloride, dihydrochloride or trifluoroacetic acid salt, read-out: IC 50 Activity"}},
  "note": "Where two headings read alike, the source gives them in different places.",
  "data": [
    {"smiles": "Cc1nnc(-c2ccc(-n3nc(Br)c4cnc(N[C@@H]5CC[C@](C(=O)N6CCNCC6)(C(C)C)C5)nc43)cc2CCC(N)=O)s1", "note": "[Example 28, 3-(5-(3-bromo-6-(((1R,3R)-3-isopropyl-3-(piperazine-1-carbonyl)cyclopentyl)amino)-1H-pyrazolo[3,4-d]pyrimidin-1-yl)-2-(5-methyl-1,3,4-thiadiazol-2-yl)phenyl)propanamide; 2,2,2-trifluoroacetic acid]", "values": [
      {"measurement": "IC50", "setting": "GCN2 biochemical IC50, 4 nM GCN2, 2 μM ATP, 80 nM GFP-eIF2α, 90 min RT, read-out: GCN2 activity", "value": "< 0.025", "unit": "µM"}
    ]},
    {"smiles": "CNC(=O)[C@]1(C)CC[C@@H](Nc2ncc3c(Br)nn(-c4ccc(-c5nnc(C(=O)NCCN(C)C)s5)cc4)c3n2)C1", "note": "[5-[4-[3-bromo-6-[[(1R,3R)-3-methyl-3-(methylcarbamoyl)cyclopentyl]amino]pyrazolo[3,4-d]pyrimidin-1-yl]phenyl]-N-[2-(dimethylamino)ethyl]-1,3,4-thiadiazole-2-carboxamide]", "values": [
      {"measurement": "IC50", "setting": "[1]", "value": "0.025 to 0.2", "unit": "µM"}
    ]},
    {"smiles": "CNC(=O)[C@]1(C)CC[C@@H](Nc2ncc3c(Br)nn(-c4ccc(-n5ccnc5)cc4)c3n2)C1", "note": "[(1R,3R)-3-[[3-bromo-1-(4-imidazol-1-ylphenyl)pyrazolo[3,4-d]pyrimidin-6-yl]amino]-N,1-dimethyl-cyclo-pentanecarboxamide]", "values": [
      {"measurement": "IC50", "setting": "[1]", "value": "0.025 to 0.2", "unit": "µM"}
    ]},
    {"smiles": "Cc1cn2c(n1)CN(C(=O)[C@@H]1CC[C@@H](Nc3ncc4c(Br)nn(-c5cc(F)c6ncccc6c5)c4n3)C1)CC2", "note": "[[(1R,3R)-3-[[3-bromo-1-(8-fluoro-6-quinolyl)pyrazolo[3,4-d]pyrimidin-6-yl]amino]cyclo-pentyl]-(2-methyl-6,8-dihydro-5H-imidazo [1,2-a]pyrazin-7-yl)methanone]", "values": [
      {"measurement": "IC50", "setting": "[1]", "value": "0.025 to 0.2", "unit": "µM"}
    ]},
    {"smiles": "CNC(=O)[C@]1(C)CC[C@@H](Nc2ncc3c(Br)nn(-c4cc(C#N)cc(C5CNC5)c4)c3n2)C1", "note": "[(1R,3R)-3-[[1-[3-(azetidin-3-yl)-5-cyano-phenyl]-3-bromo-pyrazolo[3,4-d]pyrimidin-6-yl]amino]-N,1-dimethyl-cyclopentane-carboxamide]", "values": [
      {"measurement": "IC50", "setting": "[1]", "value": "0.025 to 0.2", "unit": "µM"}
    ]},
    {"smiles": "CN1CCN(C(=O)[C@@H]2CC[C@@H](Nc3ncc4c(Br)nn(-c5cnc6c(Cl)nccc6c5)c4n3)C2)CC1=O", "note": "[4-((1R,3R)-3-((3-bromo-1-(8-chloro-1,7-naphthyridin-3-yl)-1H-pyrazolo[3,4-d]pyrimidin-6-yl)amino)cyclopentane-1-carbonyl)-1-methylpiperazin-2-one]", "values": [
      {"measurement": "IC50", "setting": "[1]", "value": "0.025 to 0.2", "unit": "µM"}
    ]},
    {"smiles": "CNC(=O)C1(C)CC[C@@H](Nc2ncc3c(Br)nn(-c4ccc5[nH]c(=O)cc(C)c5c4)c3n2)C1", "note": "(stereo partly drawn) [(3R)-3-[[3-bromo-1-(4-methyl-2-oxo-1H-quinolin-6-yl)pyrazolo[3,4-d]pyrimidin-6-yl]amino]-N,1-dimethyl-cyclopentanecarboxamide]", "values": [
      {"measurement": "IC50", "setting": "[1]", "value": "0.025 to 0.2", "unit": "µM"}
    ]},
    {"smiles": "CNC(=O)[C@]1(C)CC[C@@H](Nc2ncc3c(Br)nn(-c4ccc(-c5nnc(C(C)(C)C)o5)cc4)c3n2)C1", "note": "[(1R,3R)-3-[[3-bromo-1-[4-(5-tert-butyl-1,3,4-oxadiazol-2-yl)phenyl]pyrazolo[3,4-d]pyrimidin-6-yl]amino]-N,1-dimethyl-cyclopentane-carboxamide]", "values": [
      {"measurement": "IC50", "setting": "[1]", "value": "0.025 to 0.2", "unit": "µM"}
    ]},
    {"smiles": "CNC(=O)[C@]1(C)CC[C@@H](Nc2ncc3c(Br)nn(-c4cc(OCC#N)c5c(c4)OCC(=O)N5C)c3n2)C1", "note": "[(1R,3R)-3-[[3-bromo-1-[5-(cyano-methoxy)-4-methyl-3-oxo-1,4-benzoxazin-7-yl]pyrazolo[3,4-d]pyrimidin-6-yl]amino]-N,1-dimethyl-cyclopentane-carboxamide]", "values": [
      {"measurement": "IC50", "setting": "[1]", "value": "< 0.025", "unit": "µM"}
    ]},
    {"smiles": "CNC(=O)[C@]1(C)CC[C@@H](Nc2ncc3c(Br)nn(-c4ccc5nc(N)nc(N)c5c4)c3n2)C1", "note": "[(1R,3R)-3-[[3-bromo-1-(2,4-diamino-quinazolin-6-yl)pyrazolo[3,4-d]pyrimidin-6-yl]amino]-N,1-dimethyl-cyclopentane-carboxamide; 2,2,2-trifluoroacetic acid]", "values": [
      {"measurement": "IC50", "setting": "[1]", "value": "0.025 to 0.2", "unit": "µM"}
    ]},
    {"smiles": "CNC(=O)[C@@H]1CC[C@@H](Nc2ncc3c(Br)nn(-c4cc(F)c(-c5cccnc5)c(C#N)c4)c3n2)C1", "note": "[(1R,3R)-3-[[3-bromo-1-[3-cyano-5-fluoro-4-(3-pyridyl)phenyl]pyrazolo[3,4-d]pyrimidin-6-yl]amino]-N-methyl-cyclopentane-carboxamide]", "values": [
      {"measurement": "IC50", "setting": "[1]", "value": "0.025 to 0.2", "unit": "µM"}
    ]},
    {"smiles": "CNC(=O)[C@]1(C)CC[C@@H](Nc2ncc3c(Br)nn(-c4cc(CC(C)O)c5ncccc5c4)c3n2)C1", "note": "(stereo partly drawn) [(1R,3R)-3-[[3-bromo-1-[8-(2-hydroxy-propyl)-6-quinolyl]pyrazolo[3,4-d]pyrimidin-6-yl]amino]-N,1-dimethyl-cyclopentanecarboxamide]", "values": [
      {"measurement": "IC50", "setting": "[1]", "value": "< 0.025", "unit": "µM"}
    ]},
    {"smiles": "CNC(=O)[C@]1(C)CC[C@@H](Nc2ncc3c(Br)nn(-c4cccc(NC5COC5)c4)c3n2)C1", "note": "[(1R,3R)-3-[[3-bromo-1-[3-(oxetan-3-ylamino)phenyl]pyrazolo[3,4-d]pyrimidin-6-yl]amino]-N,1-dimethyl-cyclopentanecarboxamide]", "values": [
      {"measurement": "IC50", "setting": "[1]", "value": "0.025 to 0.2", "unit": "µM"}
    ]},
    {"smiles": "CNC(=O)[C@]1(C)CC[C@@H](Nc2ncc3c(Br)nn(-c4ccc5nccc(OC)c5c4)c3n2)C1", "note": "[(1R,3R)-3-[[3-bromo-1-(4-methoxy-6-quinolyl)pyrazolo[3,4-d]pyrimidin-6-yl]amino]-N,1-dimethyl-cyclopentanecarboxamide]", "values": [
      {"measurement": "IC50", "setting": "[1]", "value": "< 0.025", "unit": "µM"}
    ]},
    {"smiles": "CNC(=O)[C@@]1(C)CC[C@@H](Nc2ncc3c(Br)nn(-c4cc(N5CCNCC5)c5ncccc5c4)c3n2)C1", "note": "[(1S,3R)-3-[[3-bromo-1-(8-piperazin-1-yl-6-quinolyl)pyrazolo[3,4-d]pyrimidin-6-yl]amino]-N,1-dimethyl-cyclopentane-carboxamide]", "values": [
      {"measurement": "IC50", "setting": "[1]", "value": "0.025 to 0.2", "unit": "µM"}
    ]},
    {"smiles": "C[C@]1(C(=O)O)C[C@H](Nc2ncc3c(Br)nn(-c4ccc5ncccc5c4)c3n2)C1", "values": [
      {"measurement": "IC50", "setting": "[1]", "value": "0.2 to 0.5", "unit": "µM"}
    ]},
    {"smiles": "C[C@@]1(CO)CC[C@@H](Nc2ncc3c(Br)nn(-c4cc(CCN)c5ncccc5c4)c3n2)C1", "values": [
      {"measurement": "IC50", "setting": "[1]", "value": "0.025 to 0.2", "unit": "µM"}
    ]},
    {"smiles": "CNC(=O)[C@@]1(CO)CC[C@@H](Nc2ncc3c(Br)nn(-c4ccc(-c5nnc(C)s5)cc4)c3n2)C1", "note": "[(1S,3R)-3-[[3-bromo-1-[4-(5-methyl-1,3,4-thiadiazol-2-yl)phenyl]pyrazolo [3,4-d]pyrimidin-6-yl]amino]-1-(hydroxymethyl)-N-methyl-cyclo-pentanecarboxamide]", "values": [
      {"measurement": "IC50", "setting": "[1]", "value": "0.025 to 0.2", "unit": "µM"}
    ]},
    {"smiles": "CNC(=O)CCC1(C#N)CC[C@@H](Nc2ncc3c(Br)nn(-c4ccc(-c5nnc(C)s5)cc4)c3n2)C1", "note": "(stereo partly drawn)", "values": [
      {"measurement": "IC50", "setting": "[1]", "value": "< 0.025", "unit": "µM"}
    ]},
    {"smiles": "CNC(=O)[C@@H]1CC[C@@H](Nc2ncc3c(Br)nn(-c4cc(Cl)cc(CO)c4)c3n2)C1", "note": "[(1R,3R)-3-[[3-bromo-1-[3-chloro-5-(hydroxy-methyl)phenyl]pyrazolo[3,4-d]pyrimidin-6-yl]amino]-N-methyl-cyclopentanecarboxamide]", "values": [
      {"measurement": "IC50", "setting": "[1]", "value": "0.025 to 0.2", "unit": "µM"}
    ]},
    {"smiles": "CNC(=O)[C@]1(C)CC[C@@H](Nc2ncc3c(Br)nn(-c4cc(Cl)c(F)c(CS(C)(=O)=O)c4)c3n2)C1", "values": [
      {"measurement": "IC50", "setting": "[1]", "value": "0.025 to 0.2", "unit": "µM"}
    ]},
    {"smiles": "Cc1nnc(-c2ccc(-n3nc(Br)c4cnc(NC5CC(P(C)(C)=O)C5)nc43)cc2CCC#N)s1", "note": "(stereo not drawn) [3-[5-[3-bromo-6-[(3-dimethylphosphoryl-cyclobutyl)amino]pyrazolo[3,4-d]pyrimidin-1-yl]-2-(5-methyl-1,3,4-thiadiazol-2-yl)phenyl]propanenitrile]", "values": [
      {"measurement": "IC50", "setting": "[1]", "value": "0.025 to 0.2", "unit": "µM"}
    ]},
    {"smiles": "Cc1nnc(-c2ccc(-n3nc(Br)c4cnc(N[C@@H]5CC[C@@](C)(N(C)C)C5)nc43)cc2)s1", "values": [
      {"measurement": "IC50", "setting": "[1]", "value": "0.025 to 0.2", "unit": "µM"}
    ]},
    {"smiles": "O=C([C@@H]1CC[C@@H](Nc2ncc3c(Br)nn(-c4cc(F)c5ncccc5c4)c3n2)C1)n1ccc(C(F)(F)F)n1", "note": "[((1R,3R)-3-((3-bromo-1-(8-fluoroquinolin-6-yl)-1H-pyrazolo[3,4-d]pyrimidin-6-yl)amino)cyclopentyl)(3-(trifluoromethyl)-1H-pyrazol-1-yl)methanone]", "values": [
      {"measurement": "IC50", "setting": "[1]", "value": "0.025 to 0.2", "unit": "µM"}
    ]}
  ]
}
